In US20080292736A1, “Bioavailability enhancing activity of carum carvi extracts and fractions thereof” (COUNCIL OF SCIENTIFIC AND INDUSTRIAL RESEARCH, priority 2001, published 2008):

Assay: Enhancement of bioavailability of drugs given to rats with bioenhancers (plasma drug level by HPLC)
Conditions: for % Enhancement in bioavailability, BE from Carum carvi: drug with Carum carvi bioenhancer (aqueous or 50% alcoholic extract 30 mg/kg or Fraction No. 1 15 mg/kg), drug dose mg/kg; for % Enhancement in bioavailability, Carum carvi + Zingiber officinale: drug with Carum carvi bioenhancer and Zingiber officinale 35 mg/kg; for % Enhancement in bioavailability, Carum carvi + Zingiber officinale / % Enhancement in bioavailability, Carum carvi + Piperine / % Enhancement in bioavailability, BE from Zingiber officinale / % Enhancement in bioavailability, Piperine as BE: drug dose as in row; for % Enhancement in bioavailability, Carum carvi + Piperine: drug with Carum carvi bioenhancer and piperine 8 mg/kg; for % Enhancement in bioavailability, BE from Zingiber officinale: drug with Zingiber officinale 50% alcoholic extract of fresh ginger 35 mg/kg; for % Enhancement in bioavailability, Piperine as BE: drug with piperine 8 mg/kg; for % Enhancement in bioavailability, Carum carvi (Cc) Frac 1.: nutraceutical with Carum carvi Fraction No. 1 15 mg/kg; for % Enhancement in bioavailability, Carum carvi + Zingiber officinale, Frac 1. (Cc): nutraceutical with Carum carvi Fraction No. 1 and Zingiber officinale; for % Enhancement in bioavailability, Carum carvi + piperine, Frac 1. (Cc): nutraceutical with Carum carvi Fraction No. 1 and piperine; for % Enhancement in bioavailability, Carum carvi (Cc) Extr.: nutraceutical with Carum carvi extract 30 mg/kg; for % Enhancement in bioavailability, Carum carvi + Zingiber officinale, Extr. (Cc): nutraceutical with Carum carvi extract and Zingiber officinale; for % Enhancement in bioavailability, Carum carvi + piperine, Extr. (Cc): nutraceutical with Carum carvi extract and piperine
Method: Bioenhancers of Zingiber officinale, mean 50% alcoholic extract of fresh ginger. The doses remain unchanged whether the bioenhancers are used alone or in combination.
The amount of bioenhancers used are given below: • i. from Carum carvi: extract 30 mg/kg body weight (rats); Fraction No. 1: 15 mg/kg body weight (rats) • ii. piperine 8 mg/kg body weight (rats) • iii. Zingiber officinale: 35 mg/kg body weight (rats) • The drug used was rifampicin (40 mg/kg). The drug alone or in combination with the bioenhancers was administered to rats as given below: • Group 1: control • Group 2: Rifampicin alone • Group 3: bioenhancer alone • Group 4: Rifampicin with Carum carvi bioenhancer
Blood from the control/treated animals at predetermined intervals (0-24 hours) (total 14 timings). Rifampicin was extracted from the blood (plasma) using dichloromethane. […] The mobile phase was phosphate buffer:acetonitrile in a ratio of 40:60, and a flow rate of 1.0 ml/min.

Compound | % Enhancement in bioavailability, BE from Carum carvi | % Enhancement in bioavailability, Carum carvi + Zingiber officinale | % Enhancement in bioavailability, Carum carvi + Piperine | % Enhancement in bioavailability, BE from Zingiber officinale | % Enhancement in bioavailability, Piperine as BE | % Enhancement in bioavailability, Carum carvi (Cc) Frac 1. | % Enhancement in bioavailability, Carum carvi + Zingiber officinale, Frac 1. (Cc) | % Enhancement in bioavailability, Carum carvi + piperine, Frac 1. (Cc) | % Enhancement in bioavailability, Carum carvi (Cc) Extr. | % Enhancement in bioavailability, Carum carvi + Zingiber officinale, Extr. (Cc) | % Enhancement in bioavailability, Carum carvi + piperine, Extr. (Cc)
O=c1[nH]cc(F)c(=O)[nH]1 [5-Fluorouracil] | 90% | 100% | 110% | 110% | 87% |  |  |  |  |  | 
Cn1c(=O)c2[nH]cnc2n(C)c1=O [Theophylline] | 70% | 89% | 79% | 76% | 65% |  |  |  |  |  | 
CC(=O)N1CCN(c2ccc(OCC3COC(Cn4ccnc4)(c4ccc(Cl)cc4Cl)O3)cc2)CC1 (centres unmarked) [Ketoconazole] | 55% | 96% | 100% | 125% | 105% |  |  |  |  |  | 
CC1(C)S[C@@H]2[C@H](NC(=O)[C@H](N)c3ccc(O)cc3)C(=O)N2[C@H]1C(=O)O [Amoxycillin] | 75% | 100% | 115% | 80% | 120% |  |  |  |  |  | 
O=C(CCCN1CCC(O)(c2ccc(Cl)cc2)CC1)c1ccc(F)cc1 [Haloperidol] | 95% | 85% | 90% | Nil | nil |  |  |  |  |  | 
CCc1cc(C(N)=S)ccn1 [Ethionamide] | 68% | 70% | 65% | 56% | 45% |  |  |  |  |  | 
COc1cccc2c1C(=O)c1c(O)c3c(c(O)c1C2=O)C[C@@](O)(C(=O)CO)C[C@@H]3O[C@H]1C[C@H](N)[C@H](O)[C@H](C)O1 [Dauxorubicin] | Nil | 69% | 70% | 72% | 68% |  |  |  |  |  | 
CN(Cc1cnc2nc(N)nc(N)c2n1)c1ccc(C(=O)N[C@@H](CCC(=O)O)C(=O)O)cc1 [Methotrexate] | 76% | 102% | 89% | 87% | 65% |  |  |  |  |  | 
[Ca+2] [Calcium] |  |  |  | nil | nil | Nil | Nil | Nil | nil | Nil | nil
CN(Cc1cc(Br)cc(Br)c1N)C1CCCCC1 [Bromhexine] | Nil | 71% | 70% | 67% | 67% |  |  |  |  |  | 
Cc1nnc2n1-c1ccc(Cl)cc1C(c1ccccc1)=NC2 [Alprazolam] | Nil | 80% | 70% | 76% | 65% |  |  |  |  |  | 
Nc1ccc(S(=O)(=O)c2ccc(N)cc2)cc1 [Dapsone] | 56% | 68% | 67% | 46% | 34% |  |  |  |  |  | 
Cc1cn([C@H]2C[C@H](N=[N+]=[N-])[C@@H](CO)O2)c(=O)[nH]c1=O [Zidovudine] | 92% | 87% | 95% | 105% | 140% |  |  |  |  |  | 
COc1c(C)c2c(c(O)c1C/C=C(\C)CCC(=O)OCCN1CCOCC1)C(=O)OC2 [Mycophenolate Mofeit] | Nil | nil | nil | Nil | nil |  |  |  |  |  | 
CS(=O)(=O)c1ccc(C2=C(c3ccccc3)C(=O)OC2)cc1 [Rofecoxib] | 75% | 80% | 70% | Nil | nil |  |  |  |  |  | 
C=CC1=C(C(=O)O)N2C(=O)[C@@H](NC(=O)/C(=N\O)c3csc(N)n3)[C@H]2SC1 [Cefidinir] | 89% | 130% | 95% | 35% | 60% |  |  |  |  |  | 
[K+] [Potassium] |  |  |  | nil | nil | Nil | Nil | Nil | nil | Nil | nil
CSCC[C@H](N)C(=O)O [Methionine] |  |  |  | 23% | 11% | 28% | 37% | 30% | 20% | 30% | 25%
Cc1ncc(CO)c(CO)c1O [Vit B 6] |  |  |  | Nil | Nil | Nil | Nil | Nil | nil | Nil | Nil
Vit B 12 |  |  |  | Nil | Nil | nil | Nil | Nil | Nil | Nil | Nil
Cc1ncc(C[n+]2csc(CCO)c2C)c(N)n1 [Vit B 1] |  |  |  | 31% | 17% | 42% | 55% | 26% | 37% | 43% | 21%
C[C@@H]1[C@H](O)[C@@H](C)/C=C/C=C/C=C/C=C/C=C/C=C/C=C/[C@H](O[C@@H]2O[C@H](C)[C@@H](O)[C@H](N)[C@@H]2O)C[C@@H]2O[C@](O)(C[C@@H](O)C[C@@H](O)[C@H](O)CC[C@@H](O)C[C@@H](O)CC(=O)O[C@H]1C)C[C@H](O)[C@H]2C(=O)O [Amphotericin B] | 78% | 80% | 90% | Nil | nil |  |  |  |  |  | 
CN/C(=N/CCSCc1nc[nH]c1C)NC#N [Cimetidine] | 72% | 100% | 84% | 98% | nil |  |  |  |  |  | 
CC(C)NCC(O)COc1cccc2ccccc12 (centres unmarked) [Propranolol] | 68% | 75% | 90% | 76% | 84% |  |  |  |  |  | 
[Zn] [Zinc] |  |  |  | nil | nil | Nil | Nil | Nil | nil | Nil | nil
